According to PubChem BioAssay AID2384 (Southern Research Specialized Biocontainment Screening …, 2010):
Several values for one entry are separate records, joined by “and”; a condition that tells them apart may be missing. Identical values can stand only once.

Each compound was assayed on S. typhi GFP reporter counter-screen, fluorescence, 4 h (assay: S. typhi counter-screen signal inhibition – fluorescence, 4 h, counter-screen for PhoP regulon inhibitor project, dose response (AID 2384)).

Structure (SMILES)	IC50
Cc1ccc(C(C[N+](=O)[O-])Sc2ccc(N)cc2)cc1 (centres undefined)	26.7 µM
OCCNc1nc(Nc2ccccc2)nc2ccccc12	22.4 µM
Cc1ccc(-c2cc(-c3ccc(C)cc3)[n+](-c3ccccc3)c(-c3ccc(C)cc3)c2)cc1	23.6 µM
CCn1cc(C(=O)O)c(=O)c2cc(F)c(N3CCN(C(=S)Nc4ccc(OC)cc4)CC3)cc21	35.9 µM
CN1CCc2c(sc(NC(=O)c3ccc([N+](=O)[O-])o3)c2C(N)=O)C1	17.1 µM
Nc1nnc(-c2cccc(Cl)c2Cl)c(N)n1	25.8 µM
C#CCOCCOCCOCCNc1nc(N2CCN(C(=O)CCCCCCCCCCNC(=O)[C@H](CCCCN)n3cc(C)nn3)CC2)nc(N2CCN(C(=O)CCCCCCCCCCNC(=O)[C@H](CCCN=C(N)N)n3cc(C[C@@H](C)CC)nn3)CC2)n1	20.7 µM
CNC(=S)N1CCN(c2c(F)cc3c(=O)c(C(=O)O)cn(C4CC4)c3c2OC)CC1C (centres undefined)	48.2 µM
NC1=NC[C@@H](Cc2ccc(O)cc2)N1CCc1cc(C(F)(F)F)cc(C(F)(F)F)c1	41.7 µM
CCOC(=O)c1ccccc1-n1c(C)cc(C2N=C(N)Nc3nc4ccccc4n32)c1C (centres undefined)	39.4 µM
CCn1cc(C(=O)O)c(=O)c2cnc(N3CCNCC3)nc21	50.1 µM
CN1CCCN(S(=O)(=O)c2ccc3ccccc3c2)CC1	46 µM
O=C(CSc1nc2ccccc2s1)N/N=C/c1cc([N+](=O)[O-])ccc1O	60.8 µM
O=C(Nc1nnc(C2COc3ccccc3O2)o1)c1ccc(F)cc1 (centres undefined)	37.8 µM
O=C(Cn1cncn1)N/N=C/c1ccccc1O	150 µM
C[C@H]1c2cccc(O)c2C(O)=C2C(=O)[C@]3(O)C(O)=C(C(N)=O)C(=O)[C@@H](N(C)C)C3[C@@H](O)C21 (some centres undefined)	0.68 µM
Cc1nc(N)nc(N)c1CCCc1ccc(Cl)c(Cl)c1	31.5 µM
Cn1ncnc2c(=O)n(C)c(=O)nc1-2	2.53 µM
O=C(N/N=C/c1ccc([N+](=O)[O-])s1)c1cccnc1	34.7 µM
CC(=O)Nc1ccc(S(=O)(=O)NNc2cccc(C)c2)cc1	27.5 µM
C/C(=N/Nc1ccnc2cc(Cl)ccc12)c1ccc(N)cc1	73.9 µM
O=C(/C=C/c1ccccc1)c1cc(Br)ccc(=O)c1O	21.8 µM
CCn1cc(C(=O)O)c(=O)c2cc(F)c(N3CCN(C)CC3)cc21	1.23 µM
COc1ccc(C(=O)CCN2CCc3cc(OC)c(OC)cc3C2)cc1	120 µM

Structure (SMILES)	IC50
COc1ccccc1Nc1nc(NCc2ccco2)c2ccccc2n1	56.3 µM
CCCCCCCNC(=O)C1(CC2CC(c3cccc(Br)c3)=NO2)CCNCC1 (centres undefined)	39.8 µM
O=C(N/N=C/c1cc(Br)cc(Br)c1O)c1ccncc1	45.3 µM
Clc1ccc2[nH]c3c(c2c1)CCc1cn[nH]c1-3	105 µM
CN(C)c1ccc(/C=C/c2ccc3ccccc3[n+]2C)cc1	19.1 µM
S=C(NCc1ccc(Cl)cc1)Nc1ccncc1	35 µM
CCCCCCCCCCCCCCCC[N+](C)(C)CCN(Cc1ccc(OC)cc1)c1ncccn1	19.1 µM
CSc1ccccc1NC(=O)CN1CCCCC1C (centres undefined)	131 µM
c1ccc2c(c1)CSc1sccc1C2=C1CCNCC1	80.3 µM
O=C(Nc1ccc(Cc2ccncc2)cc1)c1ccc([N+](=O)[O-])o1	126 µM
CC1CCc2c(N3CCC(O)CC3)c(F)cc3c(=O)c(C(=O)O)cn1c23 (centres undefined)	18.9 µM
CCc1cccc2c(C(=O)COC(=O)c3ccc([N+](=O)[O-])s3)c[nH]c12	18.7 µM
Clc1ccc(OCCCNCc2ccccc2)c2ccccc12	18.3 µM
CC1CCN(CCCCOc2ccc(Cl)cc2)CC1	136 µM
CCOC(=O)c1c(-c2ccccc2)oc2ccc(OCC(O)CNCCN(C)C)cc12 (centres undefined)	36.8 µM
CN1CCN(c2ccc(NC(=O)CSc3ccccc3)cc2F)CC1	104 µM
Cc1cccc(NC2=NC3(CCCCC3)N=C(N)N2)c1	76.6 µM
CN(C)CCOCCOc1ccc(Cl)c2ccccc12	41.1 µM
O=[N+]([O-])c1cccc(NNS(=O)(=O)c2ccccc2F)c1	18.5 µM
Fc1ccccc1CCNCc1ccccc1	34.4 µM
Cc1cc(C)c2c(N)c3ccccc3nc2n1	84.7 µM
Oc1[nH]c2ccc(Br)cc2c1N=NC(=S)N1CCOCC1	33.1 µM
COc1c(N2CCNC(C)C2)c(F)cc2c(=O)c(C(=O)O)cn(C3CC3)c12 (centres undefined)	1.1 µM
Cc1cccc(Nc2c3c(nc4ccccc24)CCC3)c1	60.3 µM

Structure (SMILES)	IC50
O=C1c2ccccc2NC(c2ccc(-c3ccc(Br)cc3)o2)N1O (centres undefined)	25.5 µM
CC(NCc1ccc(Cl)c(Cl)c1)C(O)c1ccccc1 (centres undefined)	29.8 µM
CNC[C@H](CC1CCCCC1)NC[C@H](Cc1ccccc1)NCCC12CC3CC(CC(C3)C1)C2	10.4 µM
O=C(N/N=C/c1ccc(O)c(O)c1)C1c2ccccc2Oc2ccccc21	64.8 µM
Cc1cccc(OCC(O)Cn2c(=N)n(CCN3CCCCC3)c3ccccc32)c1 (centres undefined)	10.4 µM
N=c1n(CCN2CCCCC2)c2ccccc2n1CC(O)COc1ccccc1 (centres undefined)	29.7 µM
Cc1nc2ccccn2c1C(=O)N/N=C/c1ccc([N+](=O)[O-])o1	42.6 µM
O=C1CSC(=S)N1c1cccnc1	78.8 µM
Clc1ccc(Nc2ccc(NCc3ccccc3)nn2)cc1	90.7 µM
O=C(Nc1cccc(Br)c1)c1cc2ccccc2o1	83.3 µM
O=C1c2c(O)ccc(O)c2C(=O)c2c(NCCNCCO)ccc(NCCNCCO)c21	86.5 µM
O=C(NC(CO)C(O)c1ccc([N+](=O)[O-])cc1)C(Cl)Cl (centres undefined)	3.02 µM
CC(=O)c1cc(O)c2ccccc2c1O	107 µM
O=C(NC(=S)NNC(=O)c1ccco1)c1ccc(Br)cc1	76.2 µM
CCN1CCN(C(=O)c2cc3cc(Cl)ccc3[nH]2)CC1	30.4 µM
OC(CNCCc1ccc(Cl)cc1)COc1cc(Cl)ccc1Cl (centres undefined)	80.6 µM
Cc1cc(C2CCCCC2)n(O)c(=O)c1	13.7 µM
OCCN1CCN(C2CCC(c3ccc(F)cc3)c3ccc(F)cc32)CC1 (centres undefined)	15.9 µM
CN(C)CCCN(C(=O)c1ccc2c(c1)CCCC2)c1nc2ccc(Cl)cc2s1	54.1 µM
CN1CCN(C(c2ccc(Br)cc2)c2cc(Cl)c3cccnc3c2O)CC1 (centres undefined)	35.4 µM
CNCCCC1Sc2ccccc2Oc2ccccc21 (centres undefined)	46.4 µM
CNCCCN1c2ccccc2CCc2ccccc21	77.6 µM
CN(C)C1C(=O)C(C(N)=O)=C(O)C2(O)C(=O)C3=C(O)c4c(O)cccc4C(C)(O)C3CC12 (centres undefined)	1.71 µM
O=C(Nc1cccc([N+](=O)[O-])c1)Nc1cccs1	38.9 µM

Structure (SMILES)	IC50
CCCCNCCCOc1cccc(Cl)c1Cl	58.5 µM
CN1CCN(C(c2cccc(Cl)c2)c2ccccc2Cl)CC1 (centres undefined)	68.2 µM
Cc1cc([N+](=O)[O-])cc(/C=N/n2c(C)nc3ccccc3c2=O)c1O	78.1 µM
CN1CCN(C2=Cc3ccccc3Sc3cc(F)c(Cl)cc32)CC1	27 µM
CCC(/C=C1\Sc2ccc(OC)cc2N1CCO)=C\c1sc2ccc(OC)cc2[n+]1CCO	32 µM
Cc1cc(C)c(OCCCCNCc2ccccc2)c(Cl)c1	61.3 µM
CC(NCc1ccccc1O)C12CC3CC(CC(C3)C1)C2 (centres undefined)	33.9 µM
Cc1ccccc1C(=O)N/N=C/c1ccc([N+](=O)[O-])s1	75.3 µM
COc1cc(Br)cc(/C=N/c2ncn[nH]2)c1O	61.3 µM
O=C(Nc1nnc(-c2ccco2)o1)c1cccc(Cl)c1	43.1 µM
NC1CCN(c2c(F)cc3c(=O)c(C(=O)O)cn(C4CC4)c3c2Cl)C1 (centres undefined)	< 0.55 µM
CN(C)CCCN1c2ccccc2Sc2ccc(Cl)cc21	34.3 µM and 31.8 µM
Cc1ccc2c(c1)C1CN(C)CCC1N2Sc1ccccc1[N+](=O)[O-] (centres undefined)	37.9 µM
O=C(CSC1=NC(=O)C(c2ccccc2)C(=O)N1)Nc1cccc(Cl)c1 (centres undefined)	80.2 µM
O=C(Nc1cccc(N=Cc2cc(Cl)cc(Br)c2O)c1)c1ccco1	60 µM
CC(=O)Oc1ccccc1C(=O)Nc1ncc([N+](=O)[O-])s1	92 µM
C/C=C/c1ccc(OCc2cc(=O)n3cc(C)ccc3n2)c(OC)c1	74.7 µM
Nc1nc(F)nc2c1ncn2[C@@H]1O[C@H](CO)[C@@H](O)[C@H]1O	24.1 µM
CCCCOCCCNc1ncnc2c1[nH]c1ccccc12	77.4 µM
COc1ccc(Nc2c3c(nc4ccccc24)CCC3)cc1	113 µM
NC(N)=N/N=C/c1ccc(OCc2ccccc2Cl)cc1	39.5 µM
O=[N+]([O-])c1cccc2c(N3CCCC3)ccnc12	32.8 µM
Cc1ccc(C(c2cc(Cl)c3cccnc3c2O)N2CCN(C)CC2)cc1 (centres undefined)	30.4 µM
c1ccc(CCN2CN(CCCN3CCOCC3)c3nc4ccccc4n3C2)cc1	128 µM

Structure (SMILES)	IC50
O=C(Cn1nc(C(F)F)cc1C(F)F)NNC(=S)Nc1ccc([N+](=O)[O-])cc1	69.1 µM
O=C(O)c1ccc(N2C(=O)CSC2=S)cc1	137 µM
O=C(Nc1cccc(C2=NCCN2)c1)Nc1cccc(C2=NCCN2)c1	44.8 µM
c1ccc(Nc2nc(NCc3ccco3)c3ccccc3n2)cc1	21.5 µM
CCc1cccc2c1Sc1ccccc1CC2N1CCNCC1 (centres undefined)	39.3 µM
CNCC[C@H](Oc1cccc2ccccc12)c1cccs1	48.1 µM
COc1ccc(Nc2nc(NCC3CCCO3)c3ccccc3n2)c(OC)c1 (centres undefined)	73.2 µM
CC(Nc1nc(N2CCCCC2)nc2ccccc12)c1ccccc1 (centres undefined)	133 µM
CCOc1ccc(Nc2nc(NCC3CCCO3)c3ccccc3n2)cc1 (centres undefined)	19.6 µM
CCN1CCN(Cc2ccc(NC(=O)c3ccc(C)c(NC(=O)c4c[nH]c5cc(C(F)(F)F)ccc5c4=O)c3)cc2C(F)(F)F)CC1	34.9 µM
CC(=O)NC(c1cccs1)c1cc([N+](=O)[O-])c2cccnc2c1O (centres undefined)	25.4 µM
Cc1ccc2oc(=O)c(/C=C(\O)c3ccccc3)nc2c1	64.2 µM
OC(CNCC1CCCO1)Cn1c2ccc(Cl)cc2c2cc(Cl)ccc21 (centres undefined)	23.7 µM
O=C(CSc1nc2ccccc2[nH]1)Nc1ccc(F)c(F)c1	74.2 µM
CCN(CC)C(=S)SSC(=S)N(CC)CC	74.7 µM
CN1CC(C(=O)c2ccc(Cl)cc2)C(c2ccc(Cl)cc2Cl)C1 (centres undefined)	23.6 µM
O=[N+]([O-])c1ccc(O)c2ncccc12	0.79 µM
CCOc1cc(CNCCCN2CCOCC2)cc(Br)c1OCC(=O)Nc1cccc(C(F)(F)F)c1	47.1 µM
CCN1CCN(C(=O)c2cc3cc(F)ccc3[nH]2)CC1	18.3 µM
CCN1CCN(C(=O)Nc2ccc(Cc3ccc(NC(=O)N4CCN(CC)CC4)cc3)cc2)CC1	97.4 µM
CCCCc1ccc(NC2=NCCCS2)cc1	80.5 µM
O=C(Nc1c(Cl)ccc2nsnc12)c1ccc([N+](=O)[O-])o1	137 µM
CCc1ccc(NC(=O)Nc2ccncc2)cc1	88.4 µM
